In patent US11187660B2, “Fluorescent probes for monitoring voltage by photo-induced electron transfer” (The Regents of the University of California, priority 2011, dated 2021):

How the values were obtained:
[1] = tested on: cultured hippocampal neurons; conditions: cultured hippocampal neurons (25); cited from earlier work
HEK cells [2] = test: Bleach rate in HEK cells; type: cell-based, human; conditions: for bleach rate: HEK cells, 7 W/cm^2
Description: The dibutyl (VFx.4.Cl) dyes stain the cell membranes of HEK293 cells when loaded at a concentration of 2 μM for 15 min at 37° C. in buffer with 0.1% DMSO as cosolvent (FIG. 9A, and FIG. 10). […] The bleach rates of the probes were tested in HEK cells and compared with di-4-ANEPPS. The bleach rates for VF1.4.Cl, VF2.4.Cl, and VF2.1.Cl at 7 W/cm^2 were measured to be 3.9±0.1×10^−2 s^−1, 1.8±0.1×10^−2 s^−1, and 8.0±0.1×10^−3 s^−1, respectively.
For studies to determine excitation sensitivity of dyes, illumination was provided by a Polychrom IV light source (T.I.L.L. Photonics GMBH) with a mechanical shutter (Uniblitz VS25). For all other studies, light was provided by an Xenon arc lamp powered by an Optiquip Power supply (Optiquip) with a mechanical shutter controlled by a Lambda 10-2 controller (Sutter). Light from the Xenon arc lamp was filtered through a 480 nm filter (30 nm bandpass, Chroma), a 510 nm dichroic (Semrock), a 530 nm emission filter (50 nm bandpass, Semrock), and focused through a 40×/1.4 oil objective. For di-4-ANEPPS imaging, a 625 nm emission filter with a 50 nm bandpass was used. Bleaching studies used identical illumination conditions (480/30 nm excitation, 510 nm dichroic, 7 W/cm^2 output) and were corrected by normalizing for the extinction coefficient at the excitation wavelengths (465-495 nm).

HEK cells [3] = test: Excitation wavelength dependence of voltage response in HEK cells; type: cell-based, human; conditions: 100 mV depolarizing steps, excitation 445 to 500 nm in 5 nm increments for VF2.4.Cl
Excerpt: The ΔF/F for VF2.4.Cl is relatively insensitive to the excitation wavelength. As opposed to di-4-ANEPPS and other electrochromic dyes (ref the biochemistry paper and the ANINNE6 2004 Denk paper), which are highly sensitive to excitation wavelength, PeT-based sensors yield fluorescent responses which are invariant across their excitation spectra. To establish the invariant nature of the fluorescence response, HEK cells were loaded, as before, with VF2.4.Cl and subjected to depolarizing steps of 100 mV, each time varying the excitation wavelength. […] In contrast, di-4-ANEPPS varies by nearly 100%. Excitation at the red edge of the spectrum gives a maximal response whereas excitation at the blue edge gives a response that is some 10- to 20-fold less than the maximal response.
The fluorescence response of VF2.4.Cl to voltage changes is insensitive to the excitation wavelength, as is true for PeT-based probes, such as fluo-3 and Calcium Green-1. We assayed the wavelength dependence of VF2.4.Cl by changing the excitation wavelength in 5-nm steps and determined that the fluorescence response of VF2.4.Cl to a 100-mV depolarization from a holding potential of −60 mV varied only about 15% when testing wavelengths from 445 to 500 nm (FIG. 11C). […]

HEK cells [4] = conditions: literature (32); cited from earlier work
HEK293 cells [5] = conditions: typical values for di-4-ANEPPS; cited from earlier work
[6] = Absorbance and emission spectra in aqueous buffer with Triton X-100; type: physicochemical; conditions: 5 mM sodium phosphate, pH 9, 0.1% Triton X-100
Description: FIG. 8A, FIG. 8B, and FIG. 8C show the normalized absorbance and emission spectra for exemplary compounds of the invention in 5 mM sodium phosphate, pH 9 with 0.1% Triton X-100. Black lines are absorbance spectra; grey lines are emission spectra. a) VF1.4.Cl, b) VF2.4.Cl, and c) VF2.1.Cl.
All dyes feature emission and excitation profiles typical of dichlorofluoresceins (VF1.4.Cl: λmax=521 nm, ε=93,000 M^−1·cm^−1, λem=534 nm, Φ=0.24; VF2.4.Cl: λmax=522 nm, ε=97,000 M^−1·cm^−1, λem=536 nm, Φ=0.054; VF2.1.Cl: λmax=522 nm, ε=98 000 M^−1·cm^−1, λcm=535 nm, Φ=0.057, 5 mM sodium phosphate, pH 9, 0.1% Triton X-100) (FIG. 8).
UV absorbance and fluorescence spectra were recorded on a Cary 3E (Varian) and Fluorolog 2 (Spex) fluorimeter, respectively. Analytical, semi-preparative, and preparative HPLCs were performed on Agilent HPLCs, with Luna C18(2) columns (Phenomenex) using water (solvent A) and acetonitrile (solvent B) with 0.05% TFA as an additive. Low resolution ESI mass spectrometry was performed on an Agilent LC/MSD Trap XCT coupled to an Agilent HPLC. High resolution mass spectra were acquired on a ThermoFisher Orbitrap XL hybrid mass spectrometer. ^1H NMR spectra were collected in CDCl3 or d6-DMSO (Cambridge Isotope Laboratories, Cambridge, Mass.) at 25° C. on a 400 Varian Mercury Plus or Jeol ECA 500 spectrometer at the Department of Chemistry and Biochemistry NMR Facility at the University of California, San Diego. All chemical shifts are reported in the standard δ notation of parts per million using the peak of residual proton signals of CDCl3 or d6-DMSO as an internal reference.

HEK293 cells [7] = test: Voltage sensitivity of fluorescence in voltage-clamped HEK cells (whole-cell recording); type: cell-based, human
Excerpt: Membrane voltage of cells loaded with VF1.4.Cl or VF2.4.Cl were controlled by making tight-seal whole-cell recordings. Cells were maintained at a holding potential of −60 mV and stepped for 50 ms to various depolarizing and hyperpolarizing potentials (FIG. 5A), while simultaneously acquiring epifluorescence images. For both sensors, depolarizing steps result in fluorescence increases while hyperpolarizing steps decrease fluorescence intensity, in keeping with our proposed mechanism. […] For di-4-ANEPPS, typical values are 0.08-0.12% per mV. The larger changes for VF1.4.Cl and VF2.4.Cl compared to di-4-ANEPPS are somewhat expected, since a PeT-based voltage sensor samples the entire emission spectrum, whereas electrochromic dyes are limited to the edge of the spectrum only. For both probes, the voltage responses are linear across the physiologically relevant ranges of −100 mV to +100 mV. To assess the speed of the optical response to voltage, VF2.4.Cl signals were monitored in response to voltage steps of 100 mV from a holding potential of −60 mV.
We characterized the voltage sensitivity of all three indicators by making tight-seal whole-cell recordings of HEK293 cells stained with the VF sensors. Cells were voltage-clamped at −60 mV holding potential and sequentially stepped to depolarizing and hyperpolarizing potentials at 20-mV increments (FIG. 9B). For all three dyes, depolarizing steps produced fluorescence increases, whereas hyperpolarizing steps produced fluorescence decreases, in keeping with the proposed PeT mechanism. The fluorescence response is linear over the range of −100 mV to +100 mV (FIG. 9C), with voltage sensitivities ΔF/F per 100 mV of 20±1% for VF1.4.Cl and 25±1% for VF2.4.Cl. This statistically significant increase in voltage sensitivity (P<0.05, two-tailed Student t test) is expected upon increasing the length of the molecular wire, and is 2.5- to 4-times more sensitive than di-4-ANEPPS, which, in our hands, gives sensitivities of between 6% and 10% ΔF/F per 100 mV. […] To investigate the speed of response of VF probes, we again made whole-cell recordings of cells stained with VF2.4.Cl, applied 100-mV depolarizing steps from a holding potential of −60 mV, and recorded both the electrophysiological signals and the optical signals.
Electrophysiological recordings of HEK293 cells and cultured neurons were performed with an Axopatch 200A or 200B amplifier (Molecular Devices) at room temperature. The signals were digitized with Digidata 1332A and recorded with pCLAMP 9 software (Molecular Devices) on a PC. Analysis of electrophysiological data was done with AxoGraph X (AxoGraphX), pCLAMP 9, and/or ClampFit (Molecular Devices). For most experiments the extracellular solution consisted of (in mM) 145 NaCl, 20 glucose, 10 HEPES, 3 KCl, 2 CaCl2, 1 MgCl2 (pH 7.35, 310 mOsm). The intracellular solution contained (in mM) 115 potassium gluconate, 10 BAPTA tetrapotassium salt, 10 HEPES, 5 NaCl, 10 KCl, 2 ATP disodium salt, 0.3 GTP trisodium salt (pH 7.25, 290 mOsm).
For studies to determine excitation sensitivity of dyes, illumination was provided by a Polychrom IV light source (T.I.L.L. Photonics GMBH) with a mechanical shutter (Uniblitz VS25). For all other studies, light was provided by an Xenon arc lamp powered by an Optiquip Power supply (Optiquip) with a mechanical shutter controlled by a Lambda 10-2 controller (Sutter). […]

Structure (SMILES)	ΔF/F for action potentials [1]	bleach rate (HEK cells [2])	variation of fractional fluorescence response across excitation spectrum (HEK cells [3]) [%]	variation of response over excitation spectrum (HEK cells [4]) [%]	sensitivity ΔF/F, typical values (HEK293 cells [5])	bleach rate, fold smaller than di-4-ANEPPS (HEK cells [2]; identical illumination conditions)	Φ [6]	ε [6]	λem [6] [nm]	λmax [6] [nm]	voltage sensitivity ΔF/F per 100 mV (HEK293 cells [7]; HEK293 cells voltage-clamped at −60 mV holding potential) [%]	sensitivity, fractional fluorescence change (ΔF/F) versus change in membrane potential (HEK293 cells [7]; HEK cells, holding potential −60 mV) [% per mV]
Cc1ccc(N(CC(=O)O)CC(=O)O)c(OCCOc2cc(-c3c4cc(Cl)c(=O)cc-4oc4cc(O)c(Cl)cc34)ccc2N(CC(=O)O)CC(=O)O)c1 [fluo-3]	up to 150%											
CCCCN(CCCC)c1ccc2cc(/C=C/c3cc[n+](CCCS(=O)(=O)[O-])cc3)ccc2c1 [di-4-ANEPPS]		6.9±0.1×10^−2 s^−1	~100	~100	0.08-0.12 % per mV							
CCCCN(CCCC)c1ccc(/C=C/c2ccc(-c3c4cc(Cl)c(=O)cc-4oc4cc(O)c(Cl)cc34)c(S(=O)(=O)O)c2)cc1 [VF1.4.Cl, (E)-5-(4-(dibutylamino)styryl)-2-(2,7-dichloro-6-hydroxy-3-oxo-3H-xanthen-9-yl)benzenesulfonic acid]		3.9±0.1×10^−2 s^−1				two-	0.24	93,000 M^−1·cm^−1	534	521	20±1	0.20±0.01
